Data: ChEMBL document CHEMBL1201862, “PubChem BioAssay data set” (2004)
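Grown in 96-well plates, cells were treated for 48 hours with each compound at five concentrations. Insufficient inhibition: endpoint recorded as highest concentration tested. GI50 is the concentration that inhibits growth by half.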 Activity calls are given as the source filed them. No stated cut-off is given here; in the data, active = GI50 up to about 1.1 µM and inactive = higher.

How the values were obtained:
Assay in all cases: NCI-60 cell line screen, 48 h
[1] = tested on: 786-0
[2] = tested on: A498
[3] = tested on: A549
[4] = tested on: ACHN
[5] = tested on: BT-549
[6] = tested on: CAKI-1
[7] = tested on: CCRF-CEM
[8] = tested on: COLO 205
[9] = tested on: DU-145
[10] = tested on: EKVX
[11] = tested on: HCC 2998
[12] = tested on: HCT-116
[13] = tested on: HCT-15
[14] = tested on: HL-60
[15] = tested on: HOP-62
[16] = tested on: HOP-92
[17] = tested on: HT-29
[18] = tested on: Hs-578T
[19] = tested on: IGROV-1
[20] = tested on: K562
[21] = tested on: KM12
[22] = tested on: LOX IMVI
[23] = tested on: M14
[24] = tested on: MCF7
[25] = tested on: MDA-MB-231
[26] = tested on: MDA-MB-435
[27] = tested on: MDA-N
[28] = tested on: MOLT-4
[29] = tested on: Malme-3M
[30] = tested on: NCI-H226
[31] = tested on: NCI-H23
[32] = tested on: NCI-H460
[33] = tested on: NCI-H522
[34] = tested on: NCI/ADR-RES
[35] = tested on: OVCAR-3
[36] = tested on: OVCAR-4
[37] = tested on: OVCAR-5
[38] = tested on: OVCAR-8
[39] = tested on: PC-3
[40] = tested on: RPMI-8226
[41] = tested on: RXF 393
[42] = tested on: SF-268
[43] = tested on: SF-295
[44] = tested on: SF-539
[45] = tested on: SK-MEL-28
[46] = tested on: SK-MEL-2
[47] = tested on: SK-MEL-5
[48] = tested on: SK-OV-3
[49] = tested on: SN12C
[50] = tested on: SNB-19
[51] = tested on: SNB-75
[52] = tested on: SR
[53] = tested on: SW-620
[54] = tested on: T47D
[55] = tested on: TK-10
[56] = tested on: U-251
[57] = tested on: UACC-257
[58] = tested on: UACC-62
[59] = tested on: UO-31

CN(C)c1ccc(/C=C/C(=O)c2ccc(O)cc2)cc1
GI50 [1]: 7.64 µM (inactive) | GI50 [2]: 17.1 µM (inactive) | GI50 [3]: 6.27 µM (inactive) | GI50 [4]: 18.8 µM (inactive) | GI50 [5]: 6.08 µM (inactive) | GI50 [6]: 12.9 µM (inactive) | GI50 [7]: 2.83 µM (inactive) | GI50 [8]: 14 µM (inactive) | GI50 [9]: 8.67 µM (inactive) | GI50 [10]: 31.3 µM (inactive) | GI50 [11]: 15.1 µM (inactive) | GI50 [12]: 3.69 µM (inactive) | GI50 [13]: 2.94 µM | GI50 [14]: 1.79 µM (inactive) | GI50 [15]: 10.1 µM (inactive) | GI50 [16]: 38.2 µM (inactive) | GI50 [17]: 5.21 µM (inactive) | GI50 [18]: 17.4 µM (inactive) | GI50 [19]: 10.2 µM (inactive) | GI50 [20]: 1.7 µM (inactive) | GI50 [21]: 3.25 µM (inactive) | GI50 [22]: 6.35 µM (inactive) | GI50 [23]: 4.14 µM (inactive) | GI50 [24]: 4.11 µM (inactive) | GI50 [25]: 22.3 µM (inactive) | GI50 [26]: 1.27 µM (inactive) | GI50 [27]: 0.935 µM (active) | GI50 [28]: 2.64 µM (inactive) | GI50 [29]: 8.45 µM (inactive) | GI50 [30]: 56.4 µM (inactive) | GI50 [31]: 11.3 µM (inactive) | GI50 [32]: 4.72 µM (inactive) | GI50 [33]: 2.71 µM (inactive) | GI50 [34]: 2.98 µM (inactive) | GI50 [35]: 2.9 µM (inactive) | GI50 [36]: 24.2 µM (inactive) | GI50 [37]: 38.6 µM (inactive) | GI50 [38]: 7.29 µM (inactive) | GI50 [39]: 14.8 µM (inactive) | GI50 [40]: 3.85 µM (inactive) | GI50 [41]: 6.27 µM (inactive) | GI50 [42]: 15.4 µM (inactive) | GI50 [43]: 4.58 µM (inactive) | GI50 [44]: 3.2 µM (inactive) | GI50 [45]: 4.88 µM (inactive) | GI50 [46]: 14 µM (inactive) | GI50 [47]: 6.58 µM (inactive) | GI50 [48]: 4.78 µM (inactive) | GI50 [49]: 5.37 µM (inactive) | GI50 [50]: 25.1 µM (inactive) | GI50 [51]: 5.2 µM (inactive) | GI50 [52]: 0.33 µM (active) | GI50 [53]: 3.57 µM (inactive) | GI50 [54]: 13.5 µM (inactive) | GI50 [55]: 35.3 µM (inactive) | GI50 [56]: 3.99 µM (inactive) | GI50 [57]: 7.66 µM (inactive) | GI50 [58]: 4.08 µM (inactive) | GI50 [59]: 14.4 µM (inactive)

NS(=O)(=O)c1ccc(/N=N/c2ccc(O)c(O)c2)cc1
GI50 [1]: 12.4 µM (inactive) | GI50 [2]: 24.9 µM (inactive) | GI50 [3]: 20.3 µM (inactive) | GI50 [4]: 3.22 µM (inactive) | GI50 [5]: 2.58 µM (inactive) | GI50 [6]: 36.2 µM (inactive) | GI50 [7]: 3.56 µM (inactive) | GI50 [8]: 20.7 µM (inactive) | GI50 [9]: 31 µM (inactive) | GI50 [10]: 46.2 µM (inactive) | GI50 [11]: 21.2 µM (inactive) | GI50 [12]: 9.71 µM (inactive) | GI50 [13]: 3.18 µM | GI50 [14]: 16.9 µM (inactive) | GI50 [15]: 27.4 µM (inactive) | GI50 [16]: 23.7 µM (inactive) | GI50 [17]: 27.2 µM (inactive) | GI50 [18]: 20 µM (inactive) | GI50 [19]: 11.7 µM (inactive) | GI50 [20]: 28.7 µM (inactive) | GI50 [21]: 11.7 µM (inactive) | GI50 [22]: 15 µM (inactive) | GI50 [23]: 24.5 µM (inactive) | GI50 [24]: 27.5 µM (inactive) | GI50 [25]: 10.7 µM (inactive) | GI50 [26]: 15.1 µM (inactive) | GI50 [27]: 20.6 µM (inactive) | GI50 [28]: 3.79 µM (inactive) | GI50 [29]: 21.3 µM (inactive) | GI50 [30]: 14.5 µM (inactive) | GI50 [31]: 17 µM (inactive) | GI50 [32]: 19.9 µM (inactive) | GI50 [33]: 1.6 µM (inactive) | GI50 [34]: 16.9 µM (inactive) | GI50 [35]: 24.3 µM (inactive) | GI50 [36]: 5.98 µM (inactive) | GI50 [37]: 48.6 µM (inactive) | GI50 [38]: 4.88 µM (inactive) | GI50 [39]: 20.6 µM (inactive) | GI50 [40]: 10.7 µM (inactive) | GI50 [41]: 17.7 µM (inactive) | GI50 [42]: 14.5 µM (inactive) | GI50 [43]: 37 µM (inactive) | GI50 [44]: 15.9 µM (inactive) | GI50 [45]: 18.1 µM (inactive) | GI50 [46]: 17.2 µM (inactive) | GI50 [47]: 6.19 µM (inactive) | GI50 [48]: 23.3 µM (inactive) | GI50 [49]: 10.4 µM (inactive) | GI50 [50]: 21.8 µM (inactive) | GI50 [51]: 25 µM (inactive) | GI50 [52]: 3.05 µM (inactive) | GI50 [53]: 7.89 µM (inactive) | GI50 [54]: 34.8 µM (inactive) | GI50 [55]: 24.6 µM (inactive) | GI50 [56]: 12.6 µM (inactive) | GI50 [57]: 24.3 µM (inactive) | GI50 [59]: 11.2 µM (inactive)
